Experimental findings from PubChem BioAssay AID330 (DTP/NCI, 2004) are described below.

Toxic doses and inconclusive results are not listed.

This assay concerns P388 leukemia ip, CD2F1 mice, survival T/C. Description: NCI In Vivo Anticancer Drug Screen. Data for tumor model P388 Leukemia (intraperitoneal) in CD2F1 (CDF1) mice. To be noted: endpoint: median survival time, higher = longer survival. The method in brief:
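Mice carrying the transplanted tumor received test compound or vehicle. Survival was recorded in each group, and the value is the treated-group measurement divided by that of the vehicle-treated control group.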

[1] abbreviates: dose: 50.0 mg/kg/injection, schedule: Q01DX005 (ip), vehicle: Klucel (hydroxypropylcellulose) (HPC).
Where [2] appears, read: dose: 100.0 mg/kg/injection, schedule: Q01DX005 (ip), vehicle: Klucel (hydroxypropylcellulose) (HPC).
Where [3] appears, read: dose: 200.0 mg/kg/injection, schedule: Q01DX005 (ip), vehicle: Klucel (hydroxypropylcellulose) (HPC).
[4] abbreviates: dose: 50.0 mg/kg/injection, schedule: Q04DX003 (ip), vehicle: saline.
[5] abbreviates: dose: 100.0 mg/kg/injection, schedule: Q04DX003 (ip), vehicle: saline.
The mark [6] stands for this setting: dose: 50.0 mg/kg/injection, schedule: Q01DX005 (ip), vehicle: saline with Tween-80.
[7] abbreviates: dose: 100.0 mg/kg/injection, schedule: Q01DX005 (ip), vehicle: saline with Tween-80.
Setting [8] is: dose: 200.0 mg/kg/injection, schedule: Q01DX005 (ip), vehicle: saline with Tween-80.
The mark [9] stands for this setting: dose: 50.0 mg/kg/injection, schedule: Q01DX009 (ip), vehicle: saline.
Setting [10] is: dose: 50.0 mg/kg/injection, schedule: Q01DX009 (ip), vehicle: saline with Tween-80.
[11] abbreviates: dose: 100.0 mg/kg/injection, schedule: Q01DX009 (ip), vehicle: saline with Tween-80.
Where [12] appears, read: dose: 200.0 mg/kg/injection, schedule: Q01DX009 (ip), vehicle: saline with Tween-80.

With `Cc1ccc(S(=O)(=O)C(CCC(=O)c2ccccc2)(CCC(=O)c2ccccc2)[N+](=O)[O-])cc1`, the T/C was 91 % of control under setting [1], 92 % of control under setting [2] and 87 % of control under setting [3].

Turning to `CC1CCC(C(C)C)C(NC(=O)c2ccccn2)C1` (configuration not stated), the T/C reads like this: (dose: 100.0 mg/kg/injection, schedule: Q04DX002 (ip), vehicle: Klucel (hydroxypropylcellulose) (HPC)) 101 % of control; (dose: 200.0 mg/kg/injection, schedule: Q04DX002 (ip), vehicle: Klucel (hydroxypropylcellulose) (HPC)) 90 % of control; (dose: 400.0 mg/kg/injection, schedule: Q04DX002 (ip), vehicle: Klucel (hydroxypropylcellulose) (HPC)) 97 % of control.

Take `CSc1nc(N)c(C#N)c(SC)c1C#N`: the T/C runs as follows: under setting [4], 98 % of control; under setting [5], 112 % of control; (dose: 200.0 mg/kg/injection, schedule: Q04DX003 (ip), vehicle: saline) 101 % of control.

As for `COc1ccc2c3c1OC1C(O)C=CC4C(C2O)N(C)CCC341` (configuration not stated), the T/C is 100 % of control (dose: 50.0 mg/kg/injection, schedule: Q01DX005 (ip), vehicle: saline + Tween-80 + alcohol); 100 % of control (dose: 100.0 mg/kg/injection, schedule: Q01DX005 (ip), vehicle: saline + Tween-80 + alcohol); 100 % of control (dose: 200.0 mg/kg/injection, schedule: Q01DX005 (ip), vehicle: saline + Tween-80 + alcohol).

For the compound `O=C(O)CCC12CCCCC1=NC1(CCCCC1)NC2=O` (configuration not stated), the T/C (dose: 60.0 mg/kg/injection, schedule: Q01DX005 (ip), vehicle: Klucel (hydroxypropylcellulose) (HPC)) was 104 % of control; the T/C (dose: 60.0 mg/kg/injection, schedule: Q02DX002 (ip), vehicle: Klucel (hydroxypropylcellulose) (HPC)) was 102 % of control; the T/C (dose: 120.0 mg/kg/injection, schedule: Q01DX005 (ip), vehicle: Klucel (hydroxypropylcellulose) (HPC)) is 100 % of control; the T/C (dose: 120.0 mg/kg/injection, schedule: Q02DX002 (ip), vehicle: Klucel (hydroxypropylcellulose) (HPC)) is 97 % of control; the T/C (dose: 240.0 mg/kg/injection, schedule: Q01DX005 (ip), vehicle: Klucel (hydroxypropylcellulose) (HPC)) was 100 % of control; the T/C (dose: 240.0 mg/kg/injection, schedule: Q02DX002 (ip), vehicle: Klucel (hydroxypropylcellulose) (HPC)) was 103 % of control.

For `COC(=O)Nc1cc2c(cc1[N+](=O)[O-])OCCOCCOCCOCCO2`, the T/C under setting [6] was 100 % of control, the T/C under setting [7] is 98 % of control and the T/C under setting [8] was 101 % of control.

As for `CCC1CN1P(=O)(OCCC#N)N1CC1CC` (configuration not stated), the T/C runs as follows: (dose: 12.5 mg/kg/injection, schedule: Q01DX009 (ip), vehicle: saline) 100 % of control; (dose: 25.0 mg/kg/injection, schedule: Q01DX009 (ip), vehicle: saline) 104 % of control; under setting [9], 109 % of control; (dose: 100.0 mg/kg/injection, schedule: Q04DX003 (ip), vehicle: saline with Tween-80) 104 % of control; (dose: 200.0 mg/kg/injection, schedule: Q04DX003 (ip), vehicle: saline with Tween-80) 100 % of control; (dose: 400.0 mg/kg/injection, schedule: Q04DX003 (ip), vehicle: saline with Tween-80) 104 % of control.

In the case of `CC(C)(C)N1COC2CCCC21` (configuration not stated), the T/C (dose: 12.5 mg/kg/injection, schedule: Q01DX005 (ip), vehicle: saline) is 108 % of control and the T/C (dose: 25.0 mg/kg/injection, schedule: Q01DX005 (ip), vehicle: saline) was 100 % of control.

Take `COC(=O)/C=C/C=C(c1ccccc1)c1ccccc1`: the T/C by setting is: under setting [10], 99 % of control; under setting [11], 104 % of control; under setting [12], 106 % of control; (dose: 400.0 mg/kg/injection, schedule: Q01DX009 (ip), vehicle: saline with Tween-80) 113 % of control.

In the case of `Cc1ccc(/C=N/N)s1`, the T/C is, setting by setting: (dose: 50.0 mg/kg/injection, schedule: Q04DX003 (ip), vehicle: other) 90 % of control; (dose: 100.0 mg/kg/injection, schedule: Q04DX003 (ip), vehicle: other) 100 % of control; (dose: 200.0 mg/kg/injection, schedule: Q04DX003 (ip), vehicle: other) 100 % of control.

On to `CN(C)CCNc1ccc(O)c2c1C(=O)c1ccccc1C2=O`, for which the T/C is 104 % of control (dose: 5.0 mg/kg/injection, schedule: Q01DX009 (ip), vehicle: acid diluted with saline); 100 % of control (dose: 10.0 mg/kg/injection, schedule: Q01DX009 (ip), vehicle: acid diluted with saline); 100 % of control (dose: 20.0 mg/kg/injection, schedule: Q01DX009 (ip), vehicle: acid diluted with saline); 110 % of control (dose: 20.0 mg/kg/injection, schedule: Q01DX009 (ip), vehicle: distilled water + Tween-80); 124 % of control (dose: 40.0 mg/kg/injection, schedule: Q01DX009 (ip), vehicle: acid diluted with saline); 117 % of control (dose: 40.0 mg/kg/injection, schedule: Q01DX009 (ip), vehicle: distilled water + Tween-80). The T/C was 153 % of control (dose: 80.0 mg/kg/injection, schedule: Q01DX009 (ip), vehicle: acid diluted with saline) and 153 % of control (dose: 160.0 mg/kg/injection, schedule: Q01DX009 (ip), vehicle: distilled water + Tween-80).

In the case of `Oc1[nH]c2ccccc2c1N=Nc1nnc(-c2ccccc2)c(-c2ccccc2)n1`, the T/C under setting [6] is 95 % of control, the T/C under setting [7] is 107 % of control and the T/C under setting [8] was 101 % of control.

Consider `C[N+](C)(CCS(=O)(=O)[O-])C1CCCCC1`, for which the T/C under setting [9] was 98 % of control; the T/C (dose: 100.0 mg/kg/injection, schedule: Q01DX009 (ip), vehicle: saline) is 90 % of control; the T/C (dose: 200.0 mg/kg/injection, schedule: Q01DX009 (ip), vehicle: saline) is 91 % of control.

Consider `O=C=Nc1cccc2c1C(=O)c1ccccc1-2`, for which the T/C reads like this: under setting [1], 91 % of control; under setting [2], 88 % of control; under setting [3], 86 % of control.

As to `CCOC(=O)C1OC1(C)c1ccccc1` (configuration not stated), the T/C runs as follows: under setting [10], 102 % of control; under setting [11], 100 % of control; under setting [12], 107 % of control.

On to `O=C(O)CC12CC3CC(CC(=O)O)(C1)CC(CC(=O)O)(C3)C2`, for which the T/C is, setting by setting: (dose: 50.0 mg/kg/injection, schedule: Q01DX009 (ip), vehicle: Klucel (hydroxypropylcellulose) (HPC)) 109 % of control; (dose: 100.0 mg/kg/injection, schedule: Q01DX009 (ip), vehicle: Klucel (hydroxypropylcellulose) (HPC)) 108 % of control; (dose: 200.0 mg/kg/injection, schedule: Q01DX009 (ip), vehicle: Klucel (hydroxypropylcellulose) (HPC)) 111 % of control.

For the compound `CCOC(=O)c1cnc2cc3c(cc2c1N=[N+]=[N-])OCO3`, the T/C was 95 % of control (dose: 60.0 mg/kg/injection, schedule: Q01DX005 (ip), vehicle: saline with Tween-80); 90 % of control (dose: 120.0 mg/kg/injection, schedule: Q01DX005 (ip), vehicle: saline with Tween-80); 87 % of control (dose: 240.0 mg/kg/injection, schedule: Q01DX005 (ip), vehicle: saline with Tween-80).

As to `COC(=O)CCCCCCCCCCCCCC1C=CCC1` (configuration not stated), the T/C is 101 % of control (dose: 100.0 mg/kg/injection, schedule: Q01DX001 (ip), vehicle: saline); 100 % of control (dose: 200.0 mg/kg/injection, schedule: Q01DX001 (ip), vehicle: saline); 101 % of control (dose: 400.0 mg/kg/injection, schedule: Q01DX001 (ip), vehicle: saline).

`Cc1c2c(nn1C)CCOC2=O`: the T/C by setting is: (dose: 100.0 mg/kg/injection, schedule: Q01DX001 (ip), vehicle: Klucel (hydroxypropylcellulose) (HPC)) 100 % of control; (dose: 200.0 mg/kg/injection, schedule: Q01DX001 (ip), vehicle: Klucel (hydroxypropylcellulose) (HPC)) 101 % of control; (dose: 400.0 mg/kg/injection, schedule: Q01DX001 (ip), vehicle: Klucel (hydroxypropylcellulose) (HPC)) 95 % of control.

Take `CC([NH-])CC(C)[NH-].O=C(O)C(=O)O.[Pt+2]` (configuration not stated): the T/C (dose: 12.5 mg/kg/injection, schedule: Q04DX002 (ip), vehicle: saline with Tween-80) is 150 % of control and the T/C (dose: 25.0 mg/kg/injection, schedule: Q04DX002 (ip), vehicle: saline with Tween-80) is 174 % of control.

For the compound `CN1CCC(OC(=O)c2ccc3ncccc3c2)CC1`, the T/C was 100 % of control under setting [4] and 98 % of control under setting [5].
